From patent US20070149446A1, “Tamandarin analogs and fragments thereof and methods of making and using” (The Trustees of the University of Pennsylvania Center for …, priority 2003, published 2007)
Like-named read-outs stand apart in the source and are kept apart here.

Conditions: amide bond, 17.0 h

## CC(C)C[C@@H]1NC(=O)[C@H](C(C)C)OC(=O)C[C@H](O)[C@@H](C(C)C)NC(=O)[C@@H](NC(=O)OC(C)(C)C)[C@@H](C)OC(=O)[C@H](Cc2ccc3ccccc3c2)N(C)C(=O)[C@@H]2CCCN2C1=O
From CN[C@@H](Cc1ccc2ccccc2c1)C(=O)O[C@H](C)[C@H](NC(=O)OC(C)(C)C)C(=O)N[C@H](C(C)C)[C@@H](O)CC(=O)O[C@H](C(=O)N[C@@H](CC(C)C)C(=O)N1CCC[C@H]1C(=O)O)C(C)C, HATU, CH3CN, 5.0 mM, 0.0 °C
  ring closure, yield of all isomers: 65%

## CC(C)C[C@@H]1NC(=O)[C@H](C(C)C)OC(=O)C[C@H](O[Si](C(C)C)(C(C)C)C(C)C)[C@@H](C(C)C)NC(=O)[C@@H](NC(=O)OC(C)(C)C)[C@@H](C)OC(=O)[C@H](Cc2ccccc2)N(C)C(=O)[C@@H]2CCCN2C1=O
From CC(C)C[C@H](NC(=O)[C@@H](OC(=O)C[C@H](O[Si](C(C)C)(C(C)C)C(C)C)[C@H](N)C(C)C)C(C)C)C(=O)N1CCC[C@H]1C(=O)N(C)[C@@H](Cc1ccccc1)C(=O)O[C@H](C)[C@H](NC(=O)OC(C)(C)C)C(=O)O, HATU/DIEA, DMF, 8.9 mM, 25.0 °C, 3 steps
  ring closure, yield of all isomers: 15%

## COc1ccc(C[C@H]2C(=O)OC[C@H](NC(=O)OC(C)(C)C)C(=O)N[C@H](C(C)C)[C@@H](O)CC(=O)O[C@@H](C(C)C)C(=O)N[C@@H](CC(C)C)C(=O)N3CCC[C@H]3C(=O)N2C)cc1
From CN[C@@H](Cc1ccc(OC)cc1)C(=O)OC[C@H](NC(=O)OC(C)(C)C)C(=O)N[C@H](C(C)C)[C@@H](O)CC(=O)O[C@H](C(=O)N[C@@H](CC(C)C)C(=O)N1CCC[C@H]1C(=O)O)C(C)C, HATU/NMM, CH3CN, 5.7 mM, 25.0 °C
  ring closure, yield of all isomers: 89%
